Structures can show the parent of a compound that is named as a salt.
Legend:
MCF-7 cells = assay: [3H]-thymidine incorporation assay; type: cell-based; settings: Homo sapiens, 24 h, read-out: [3H]-thymidine incorporation (% of control); for activity at 1 µM: MCF7, 1 µM; for activity at 2.5 µM: MCF7, 2.5 µM; for activity at 5 µM: MCF7, 5 µM
Experimental: To evaluate the effects of synthesized compounds and reference drug on cell proliferation [3H]-thymidine incorporation assay was applied. MCF-7 cells were seeded on 6-well plates as described before. After 24 h of incubation, the cells were treated with different concentrations of novel 4-thiazolidinone derivatives Les-6416, Les-6418 (1, 2.5, 5 µM), and doxorubicin hydrochloride (0.5 and 1 µM) for 24 h at 37 °C. After 24 h, the medium was changed to a fresh one without fetal bovine serum. A total of 0.5 µCi of tritium-labeled thymidine (specific activity: 7 Ci/mmol) was added to cells for 4 h. Afterwards, the cells were washed with 1 mL of 0.05 M Tris-HCl buffer pH 7.4 containing 0.11 M NaCl and […] 5% trichloroacetic acid (TCA). Each well was filled with 1 mL of a 0.1 M NaOH solution with 1% SDS for cell lysis. After 5 min, the cell lysates were transferred to scintillation vials, which were pre-filled beforehand with two milliliters of scintillation cocktail Ultima Gold XR from PerkinElmer (Waltham, MA, USA). The Scintillation Counter 1900 TR, TRI-CARB (Packard, Perkin Elmer, Inc., San Jose, CA, USA) was used to record the results. The radioactivity observed in untreated control cells was taken as 100%. The values of the tested compound were expressed as a percentage of the control value.
To investigate the antiproliferative activity of Les-6416 and Les-6418 on the MCF-7 cell line after 24 h of treatment, the [^3H]-thymidine incorporation assay was applied. Based on the outcome of previous analysis and the structural similarity of the tested compounds, 5, 2.5, and 1 µM concentrations were applied for this research. The obtained results are shown in the graph below (Figure 2). […] Formidable results also were obtained from the reference drug doxorubicin hydrochloride: 26.00 ± 7.07% for 1 µM and 43.50 ± 3.54% for 0.5 µM

caspase 8 = assay: FLICA caspase-8 activity, flow cytometry; type: cell-based, human; settings: 5 µM, 24 h, MCF-7
Experimental: To determine the effects of the novel compounds on the caspases-3/7, caspase-8, caspase-9, and caspase-10 activity, the FLICA Caspase-3/7 Assay Kit, FLICA Caspase-8 Assay Kit, FLICA Caspase-9 Assay Kit, and FLICA Caspase-10 Assay Kit were applied (ImmunoChemistry Technologies, Bloomington, MN, USA). MCF-7 cells were seeded on 6-well plates (1 × 10^5 cells per well) and incubated for 24 h. Afterwards, they were treated for 24 h with tested compounds (Les-6416, Les-6418, Les-6381, Les-6423, and Les-6424) in a concentration of 5 µM and the reference drug doxorubicin hydrochloride in a concentration of 0.5 µM. Next, cells were amassed and washed two times with cold PBS, followed by resuspension in an Apoptosis Wash Buffer to a final concentration of 5 × 10^5 cells/mL. Afterwards, 290 µL of the prepared cell suspensions were transferred into tubes, followed by the addition of 10 µL of FLICA solution, prepared immediately before use, to each sample and incubated for an hour at 37 °C. Next, cells were washed two times with 2 mL of Apoptosis Wash Buffer, provided in the kit, centrifuged, and resuspended in 300 µL of the buffer. Prepared samples were assessed by a BD FACSCanto II flow cytometer (Becton Dickinson Biosciences, San Jose, CA, USA). For each sample, 1 × 10^4 events were analyzed. The obtained results were investigated by applying FACSDiva software Version 6.1.3 (BD Biosciences Systems, San Jose, CA, USA).
To further investigate the effects of the newly synthesized compounds on the process of apoptosis we decided to measure their impact on various caspases as evidence of intrinsic (caspase 9) or extrinsic (caspase 8, 10) pathways of programmed cell death by applying flow cytometry analysis after 24 h treatment of MCF-7 breast cancer cells with novel 4-thiazolidinone derivatives and reference drug doxorubicin hydrochloride. […] With 41.28 ± 5.45%, 43.23 ± 2.85%, and 41.90 ± 6.89% of cells with activated caspase 8, 10, and 9, respectively, Les-6416 continued the trend of displaying the most significant effect on the three tested caspases. […]

Structure (SMILES) | activity at 0.5 µM (MCF-7 cells; MCF7, 0.5 µM) | activity at 1 µM (MCF-7 cells) | cells with active caspase 8 (caspase 8) | activity at 2.5 µM (MCF-7 cells) | activity at 5 µM (MCF-7 cells)
COc1cccc2c1C(=O)c1c(O)c3c(c(O)c1C2=O)C[C@@](O)(C(=O)CO)C[C@@H]3O[C@H]1C[C@H](N)[C@H](O)[C@H](C)O1 [DOX, Doxorubicin hydrochloride, reference compound] | 43.5 ± 3.54% | 26 ± 7.07% |  |  | 
COc1ccc(C=C2SC(Nc3cc(OC)c(OC)c(OC)c3)=NC2=O)cc1 [Les-6381, 5-(4-Methoxybenzylidene)-2-((3,4,5-trimethoxyphenyl)amino)thiazol-4(5H)-one] |  |  | 19.8 ± 3.69% |  | 
COc1cc(NC2=NC(=O)C(=Cc3ccc4cc[nH]c4c3)S2)cc(OC)c1OC [Les-6416, 5-((1H-Indol-6-yl)methylene)-2-((3,4,5-trimethoxyphenyl)amino)thiazol-4(5H)-one] |  | 69 ± 1.41% | 41.28 ± 5.45% | 27 ± 5.66% | 21.5 ± 2.12%
COc1cc(NC2=NC(=O)C(=Cc3c[nH]c4ccccc34)S2)cc(OC)c1OC [Les-6418, 5-((1H-Indol-3-yl)methylene)-2-((3,4,5-trimethoxyphenyl)amino)thiazol-4(5H)-one] |  | 95.5 ± 7.78% |  | 72 ± 12.7% | 48.5 ± 12%
COc1cc(NC2=NC(=O)C(=Cc3cccs3)S2)cc(OC)c1OC [Les-6423, 5-(Thiophen-2-ylmethylene)-2-((3,4,5-trimethoxyphenyl)amino)thiazol-4(5H)-one] |  |  | 18.13 ± 1.96% |  | 

From PMC12190436, “5-Ene-2-arylaminothiazol-4(5H)-ones Induce Apoptosis in Breast Cancer Cells” (Cells, 2025)
